The test system of assay [1] is C. parvum (UGA1 Nluc expressing strain in HCT-8 cells). The assay can be described thus: microbe, parasite or virus in culture. It is filed as cell-based, Cryptosporidium parvum. The following applies: for Crypto (10 uM) Mean % inhibition: initial Pathogen Box screen, single concentration 10 µM, inhibition compared to DMSO wells; for EC50: Nluc C. parvum in HCT-8 cells, 48 hours, read-out: C. parvum EC50. An outline of the steps: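 Parasite growth quantified by NanoLuc luminescence from lysed infected HCT-8 cells, with EC50 fitted from dose curves. Compounds, single-dose 10 μM or serially diluted, were added to confluent 48 h monolayers before infection with bleached UGA1 Nluc oocysts.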

In assay [2] the test system is G. lamblia trophozoites (luciferase expressing, WBC6). Kind of assay: microbe, parasite or virus in culture. In kind it is cell-based, Giardia lamblia. The note with it: for Giardia (16 uM) Mean % inhibition: initial Pathogen Box screen, single concentration 16 µM, inhibition compared to DMSO wells; for G. lamblia EC50: luciferase expressing G. lamblia trophozoites, 24 hours, D-luciferin bioluminescence read-out. The gist of the method:
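Incubation ran 24 h at 37 °C under anaerobic conditions, with compound added in equal volume to trophozoites (WBC6, luciferase-expressing, 250,000 cells/mL). Bioluminescence was the read-out, cross-checked by MOXI Z counts on a duplicate plate; metronidazole served as control (1:2 dilutions from 40 μM).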

SMILES strings stand for the structures. Entries after “also recorded” stand apart in the source; their conditions may differ.

In the case of `CC1=NN(c2nc3ccccc3s2)C(=O)C1Cc1cccc2ccccc12` (stereo not shown) [MMV676558], in assay [1], the “Crypto (10 uM) Mean % inhibition” value came to 89%. Further, the “Giardia (16 uM) Mean % inhibition” value in assay [2] is reported as 42%.
For `COc1ccc(-c2nc(-c3cccc(NC(=O)Cc4ccc(F)cc4)c3)no2)cc1OC` [MMV676571], in that order: 84% and 6%.
For `O=C(NC1=NCCS1)c1sc2cc(F)ccc2c1Cl` [MMV676584], in that order: 69% and 89%.
For the molecule `Nc1c2c(nc3sc4c(c13)CCCC4)CCCC2` [MMV676588], the “Crypto (10 uM) Mean % inhibition” value in assay [1] is 48%. Besides, the “Giardia (16 uM) Mean % inhibition” value in assay [2] turned out to be 26%.
For the molecule `O=C(CCC1CCCCC1)Nc1cccc(-c2nnc(-c3ccco3)o2)c1` [MMV676589], the “Crypto (10 uM) Mean % inhibition” value in assay [1] turned out to be 42%. Also, in assay [2], the “Giardia (16 uM) Mean % inhibition” value was 40%.
In the case of `CCCn1nnc(NC(=O)COc2ccc(C3CCCCC3)cc2)n1` [MMV676597], the “Crypto (10 uM) Mean % inhibition” value in assay [1] was 60%. The “Giardia (16 uM) Mean % inhibition” value in assay [2] was 31%.
In the case of `CC(C)(C)n1nc(Cc2cccc3ccccc23)c2c(N)ncnc21` [MMV676599], in assay [1], the “Crypto (10 uM) Mean % inhibition” value was determined as 86%. For the same molecule, in assay [2], the “Giardia (16 uM) Mean % inhibition” value turned out to be 21%.
For `CO[C@@H](C(=O)N1Cc2[nH]nc(NC(=O)c3ccc(N4CCN(C)CC4)cc3)c2C1)c1ccccc1` [MMV676600], in that order: 76% and 6%.
On to `CNC(=O)c1nn(C)c2c1C(C)(C)Cc1cnc(Nc3ccc(N4CCN(C)CC4)cc3)nc1-2` [MMV676602], for which, in assay [1], the EC50 was 310 nM and the “Crypto (10 uM) Mean % inhibition” value is 85%. Also, in assay [2], the “Giardia (16 uM) Mean % inhibition” value is recorded as 94% and the “G. lamblia EC50” value is on record as “not effective; also recorded: not potent”.
In the case of `C[C@H]1COC2(CCN(c3nc(=O)c4cc(C(F)(F)F)cc([N+](=O)[O-])c4s3)CC2)O1` [MMV676603], the “Crypto (10 uM) Mean % inhibition” value in assay [1] was “X* (Mean or standard deviation are negative but not significantly different from the control to be a growth promoter)”. In addition, in assay [2], the “Giardia (16 uM) Mean % inhibition” value came out at 77%.
With `Cc1ncc(-c2ccnc(Nc3ccc(S(C)(=O)=O)cc3)n2)n1C(C)C` [MMV676604], in assay [1], the EC50 is 2900 nM and the “Crypto (10 uM) Mean % inhibition” value came out at 92%. Further, in assay [2], the “Giardia (16 uM) Mean % inhibition” value turned out to be 92% and the “G. lamblia EC50” value is given as “not effective; also recorded: not potent”.
Regarding `CC1(O)CC(c2nc(-c3ccc4ccc(-c5ccccc5)nc4c3)c3c(N)nccn23)C1` (stereo not shown) [MMV676605], in assay [1], the “Crypto (10 uM) Mean % inhibition” value is reported as “X* (Mean or standard deviation are negative but not significantly different from the control to be a growth promoter)”. For the same molecule, the “Giardia (16 uM) Mean % inhibition” value in assay [2] was found to be 15%.
`O=C(c1ccc(NCCO)cc1)C1C[C@H]1c1ccc(Cl)cc1` (stereo partly shown) [MMV676877]: the “Crypto (10 uM) Mean % inhibition” value in assay [1] was 70%. For the same molecule, the “Giardia (16 uM) Mean % inhibition” value in assay [2] is given as 8%.
`CCn1cnc2c(Nc3cc(F)cc(F)c3)nc(C#N)nc21` [MMV676881]: in assay [1], the “Crypto (10 uM) Mean % inhibition” value is on record as 53%. For the same molecule, the “Giardia (16 uM) Mean % inhibition” value in assay [2] was 9%.
Consider `NC(=O)c1cc(-c2ccsc2)ccc1OCCOc1ccccc1` [MMV687138], for which, in assay [1], the “Crypto (10 uM) Mean % inhibition” value is recorded as “X* (Mean or standard deviation are negative but not significantly different from the control to be a growth promoter)”. Also, the “Giardia (16 uM) Mean % inhibition” value in assay [2] is recorded as “X* (Mean or standard deviation are negative but not significantly different from the control to be a growth promoter)”.
Regarding `CCCCS(=O)(=O)Nc1ccc2cnn(C)c2c1` [MMV687145], in assay [1], the “Crypto (10 uM) Mean % inhibition” value was found to be 32%. Further, the “Giardia (16 uM) Mean % inhibition” value in assay [2] worked out at 56%.
For `Cc1cc(C)c2cc(C(=O)NC3CCCCCCC3)[nH]c2c1` [MMV687146], in that order: 33% and 15%.
For the molecule `COc1ccc(Cn2cnc3c(-c4ccco4)nc(Cl)nc32)cc1` [MMV687170], the “Crypto (10 uM) Mean % inhibition” value in assay [1] is recorded as 77%. Also, the “Giardia (16 uM) Mean % inhibition” value in assay [2] is 40%.
Consider `O=C(C1CCN(c2cc(-n3cccc3)ncn2)CC1)N1CCc2ccccc2C1` [MMV687172], for which the “Crypto (10 uM) Mean % inhibition” value in assay [1] came out at 48%. In addition, the “Giardia (16 uM) Mean % inhibition” value in assay [2] is given as “X* (Mean or standard deviation are negative but not significantly different from the control to be a growth promoter)”.
As to `CCc1ccc([C@@H]2C[C@H](C(F)(F)F)n3ncc(C(=O)NCc4ccc(OC)cc4)c3N2)cc1` [MMV687180], the “Crypto (10 uM) Mean % inhibition” value in assay [1] was “X* (Mean or standard deviation are negative but not significantly different from the control to be a growth promoter)”. Further, the “Giardia (16 uM) Mean % inhibition” value in assay [2] amounted to 23%.
Regarding `COc1ccc2nc(C)cc(OCC(=O)Nc3ccccc3OC)c2c1` [MMV687188], the “Crypto (10 uM) Mean % inhibition” value in assay [1] was found to be 38%. In addition, the “Giardia (16 uM) Mean % inhibition” value in assay [2] was 28%.
Regarding `COc1ccc2nc(C)cc(OCC(=O)NCc3ccccc3)c2c1` [MMV687189], the “Crypto (10 uM) Mean % inhibition” value in assay [1] was found to be 23%. Moreover, in assay [2], the “Giardia (16 uM) Mean % inhibition” value is listed as 16%.
In the case of `CC(C)(C(=O)Nc1ccc(F)cc1)n1cc(-c2ccccc2F)cn1` [MMV687239], in assay [1], the “Crypto (10 uM) Mean % inhibition” value is recorded as 59%. In assay [2], the “Giardia (16 uM) Mean % inhibition” value was found to be 39%.
On to `NC(=O)c1cc(Br)ccc1OCCOc1ccccc1` [MMV687243], for which the “Crypto (10 uM) Mean % inhibition” value in assay [1] amounted to 77%. In addition, in assay [2], the “Giardia (16 uM) Mean % inhibition” value was determined as 66%.
On to `CN1CCN(S(=O)(=O)c2ccc(-c3ccc4c(Nc5ccc6n[nH]nc6c5)ccnc4c3)cc2)CC1` [MMV687246], for which the “Crypto (10 uM) Mean % inhibition” value in assay [1] is on record as “X* (Mean or standard deviation are negative but not significantly different from the control to be a growth promoter)”. In assay [2], the “Giardia (16 uM) Mean % inhibition” value was 30%.
Take `Nc1nc2cc(-c3cncc(Oc4ccc(F)cc4)c3)ccc2[nH]1` [MMV687248]: the “Crypto (10 uM) Mean % inhibition” value in assay [1] is reported as 72%. In assay [2], the “Giardia (16 uM) Mean % inhibition” value was found to be 22%.
As for `Cn1c(=O)c2c(S(C)(=O)=O)snc2n(C)c1=O` [MMV687251], the “Crypto (10 uM) Mean % inhibition” value in assay [1] was determined as 76%. The “Giardia (16 uM) Mean % inhibition” value in assay [2] stood at 7.44%.
For the molecule `CCCCc1ccc(C(=O)Nc2nccc3ccccc23)nc1` [MMV687254], the “Crypto (10 uM) Mean % inhibition” value in assay [1] is reported as 77%. Also, the “Giardia (16 uM) Mean % inhibition” value in assay [2] was “X* (Mean or standard deviation are negative but not significantly different from the control to be a growth promoter)”.
Consider `CC(C)=CCC/C(C)=C\CNCCNC1C2CC3CC(C2)CC1C3` (stereo not shown) [MMV687273], for which the “Crypto (10 uM) Mean % inhibition” value in assay [1] is 35%. Moreover, in assay [2], the “Giardia (16 uM) Mean % inhibition” value amounted to 89%.
For `CCc1nc2ccc(Cl)cn2c1C(=O)NCc1ccc(N2CCC(c3ccc(OC(F)(F)F)cc3)CC2)cc1` [MMV687696], in that order: 21% and 26%.
For `O=C(NCc1cc(Cl)cc(Cl)c1)c1c(C(F)(F)F)nc2ccccn12` [MMV687699], in that order: 32% and 16%.
For `Nc1ncnc2c1ncn2[C@@H]1O[C@H](COS(=O)(=O)NC(=O)c2ccccc2O)[C@@H](O)[C@H]1O` [MMV687700], in that order: “X* (Mean or standard deviation are negative but not significantly different from the control to be a growth promoter)” and 15%.
Regarding `COc1cccc(-c2nc3c(N4CCCC4)cccc3n2CC2CCCN2)n1` (stereo not shown) [MMV687703], the “Crypto (10 uM) Mean % inhibition” value in assay [1] is given as 77%. Also, the “Giardia (16 uM) Mean % inhibition” value in assay [2] is given as 26%.
`c1ccc(Oc2ccc(-c3cc(N4CCNCC4)[nH]n3)cc2)cc1` [MMV687706]: in assay [1], the “Crypto (10 uM) Mean % inhibition” value was “X* (Mean or standard deviation are negative but not significantly different from the control to be a growth promoter)”. In assay [2], the “Giardia (16 uM) Mean % inhibition” value is given as 30%.
Take `O=C1O[C@@H](CO)CN1c1cc(F)c(C2=CCN(Cc3ccccc3)CC2)c(F)c1` [MMV687729]: the “Crypto (10 uM) Mean % inhibition” value in assay [1] was found to be 74%. The “Giardia (16 uM) Mean % inhibition” value in assay [2] came out at 25%.
For the molecule `CCCCOC(=O)Nc1cc2[nH]c(C3CCCCC3)nc2cc1N1CCCC1` [MMV687730], in assay [1], the “Crypto (10 uM) Mean % inhibition” value was 61%. Moreover, in assay [2], the “Giardia (16 uM) Mean % inhibition” value is 24%.
`Cc1cc(OCC(=O)NCc2ccccc2)c2cc(Br)ccc2n1` [MMV687747]: the “Crypto (10 uM) Mean % inhibition” value in assay [1] is recorded as 54%. Besides, in assay [2], the “Giardia (16 uM) Mean % inhibition” value was 32%.
As for `c1ccc(C[C@@H]2CN(c3nccc(Oc4ccc(-n5ccnc5)cc4)n3)CCN2)cc1` [MMV687749], the “Crypto (10 uM) Mean % inhibition” value in assay [1] is 58%. For the same molecule, the “Giardia (16 uM) Mean % inhibition” value in assay [2] is on record as 24%.
As for `c1ccc(Oc2ccc(-c3cc(C4CCOCC4)[nH]n3)cc2)cc1` [MMV687762], in assay [1], the “Crypto (10 uM) Mean % inhibition” value was determined as 68%. Besides, the “Giardia (16 uM) Mean % inhibition” value in assay [2] was “X* (Mean or standard deviation are negative but not significantly different from the control to be a growth promoter)”.
For `Cc1cnc(N2CCN[C@@H](Cc3ccccc3)C2)nc1Oc1ccc(-n2ccnc2)cc1` [MMV687765], in that order: 39% and 49%.
For `CC1(C)OB(O)c2ccc(C3=NOC(c4cc(Cl)c(F)c(Cl)c4)(C(F)(F)F)C3)cc21` (stereo not shown) [MMV687775], in that order: 56% and “X* (Mean or standard deviation are negative but not significantly different from the control to be a growth promoter)”.
Consider `Cc1cc(C2=NOC(c3cc(Cl)c(F)c(Cl)c3)(C(F)(F)F)C2)ccc1C(=O)NCc1ccc2c(c1)C(C)(C)OB2O` (stereo not shown) [MMV687776], for which the “Crypto (10 uM) Mean % inhibition” value in assay [1] is listed as 83%. For the same molecule, the “Giardia (16 uM) Mean % inhibition” value in assay [2] is 27%.

By EC50 is commonly meant the concentration that produces a half-maximal response.

These data come from publication PMC6095626, “Screening of the Pathogen Box for inhibitors with dual efficacy against Giardia lamblia and Cryptosporidium parvum” (PLoS Neglected Tropical Diseases, 2018).
